The supplement of paper PMC10307832

Columns and labels:
Assay in all cases: relative viability (nuclei count vs DMSO), 5 days (fraction); higher = more cells survive
MK-8033 + OSI-027 = compound: Cn1cc(-c2cnc3ccc4ccc(CS(=O)(=O)NCc5ccccn5)cc4c(=O)c3c2)cn1 [MK-8033] + COc1cccc2cc(-c3nc([C@H]4CC[C@H](C(=O)O)CC4)n4ncnc(N)c34)[nH]c12 [OSI-027] (partner 0.5 µM)
How it was run: (§1)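 Cells from lung cancer lines were seeded into 1536-well plates and, one day later, dosed by pin tool. Treatments were either a single drug or a fixed dose of an anchor drug with five library-drug doses (not always all listed) in √10 steps. After 5 days, nuclei were stained in a one-step fixation (final 0.05% Triton X-100, 1% formaldehyde, 1 ug/ml Hoechst) and counted on 4× images, and relative viability is the treated-to-vehicle nuclei ratio, as the median of duplicate plates.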

Irinotecan + Linsitinib = compound: CCc1c2c(nc3ccc(OC(=O)N4CCC(N5CCCCC5)CC4)cc13)-c1cc3c(c(=O)n1C2)COC(=O)[C@]3(O)CC [Irinotecan] + C[C@]1(O)C[C@@H](c2nc(-c3ccc4ccc(-c5ccccc5)nc4c3)c3c(N)nccn32)C1 [Linsitinib] (partner 1 µM)
How it was run: as §1

MK-8033 + Pemetrexed = compound: Cn1cc(-c2cnc3ccc4ccc(CS(=O)(=O)NCc5ccccn5)cc4c(=O)c3c2)cn1 [MK-8033] + Nc1nc2[nH]cc(CCc3ccc(C(=O)N[C@@H](CCC(=O)O)C(=O)O)cc3)c2c(=O)[nH]1 [Pemetrexed] (partner 0.2 µM)
How it was run: as §1

MK-8033 + Luminespib = compound: Cn1cc(-c2cnc3ccc4ccc(CS(=O)(=O)NCc5ccccn5)cc4c(=O)c3c2)cn1 [MK-8033] + CCNC(=O)c1noc(-c2cc(C(C)C)c(O)cc2O)c1-c1ccc(CN2CCOCC2)cc1 [Luminespib] (partner 0.01 µM)
How it was run: as §1

Cell Line	relative viability (MK-8033 + OSI-027; first compound 0.02 µM)	relative viability (MK-8033 + OSI-027; first compound 0.06325 µM)	relative viability (MK-8033 + OSI-027; first compound 0.2 µM)	relative viability (MK-8033 + OSI-027; first compound 0.6325 µM)	relative viability (MK-8033 + OSI-027; first compound 2 µM)	relative viability (Irinotecan + Linsitinib; first compound 0.6325 µM)	relative viability (Irinotecan + Linsitinib; first compound 2 µM)	relative viability (Irinotecan + Linsitinib; first compound 6.325 µM)	relative viability (Irinotecan + Linsitinib; first compound 20 µM)	relative viability (MK-8033 + Pemetrexed; first compound 0.02 µM)	relative viability (MK-8033 + Pemetrexed; first compound 0.06325 µM)	relative viability (MK-8033 + Pemetrexed; first compound 0.2 µM)	relative viability (MK-8033 + Pemetrexed; first compound 0.6325 µM)	relative viability (MK-8033 + Pemetrexed; first compound 2 µM)	relative viability (MK-8033 + Luminespib; first compound 0.02 µM)	relative viability (MK-8033 + Luminespib; first compound 0.06325 µM)	relative viability (MK-8033 + Luminespib; first compound 0.2 µM)	relative viability (MK-8033 + Luminespib; first compound 0.6325 µM)	relative viability (MK-8033 + Luminespib; first compound 2 µM)
NCI-H2023	0.432	0.288	0.335	0.319	0.223	0.714	0.503	0.198	0.0873	0.21	0.211	0.216	0.22	0.222	0.758	0.652	0.652	0.693	0.634
NCI-H2085	0.762	0.728	0.653	0.643	0.7	0.584	0.672	0.381	0.497	0.722	0.767	0.862	0.874	0.875	0.471	0.483	0.378	0.447	0.415
NCI-H2087	0.546	0.519	0.443	0.642	0.617	0.453	0.313	0.252	0.298	0.622	0.714	0.629	0.578	0.674	0.119	0.174	0.148	0.242	0.148
NCI-H2126	0.752	0.666	0.764	0.595	0.808	–	0.414	0.355	0.335	0.674	0.661	0.613	0.689	0.649	0.905	0.757	0.817	0.836	0.872
NCI-H2228	0.692	0.562	0.576	0.559	0.552	0.706	0.714	0.39	0.477	0.274	0.343	0.365	0.308	0.325	0.178	0.0977	0.163	0.161	0.208
NCI-H2347	0.395	0.399	0.406	0.454	0.422	0.761	0.739	0.498	0.5	0.462	0.423	0.434	0.356	0.415	0.362	0.277	0.473	0.408	0.556
NCI-H2405	0.595	0.538	0.594	0.604	0.604	–	0.763	0.294	0.18	1.04	1.01	0.963	1.06	1.11	0.711	0.614	0.65	0.64	0.814
NCI-H3122	1.05	0.957	0.926	0.991	0.916	0.902	0.293	0.24	0.22	0.201	0.201	0.195	0.188	0.198	0.0907	0.0983	0.0777	0.0917	0.0881
PC-3 [JPC-3]	0.78	0.647	0.646	0.776	0.692	0.842	0.413	0.377	0.412	1.07	–	0.99	1.1	1.07	0.728	0.618	0.713	0.663	0.713
